# System: 661W photoreceptors
# Assay: Microglia-photoreceptor interaction assay: 661W viability (MTT) in conditioned media of LPS-stimulated BV2 microglia
# Conditions: BV2 pre-treated before LPS 50 ng/ml; 661W exposed 24 h; TMX 3 and 5 μg/ml, raloxifene 0.3-3 μM, G-1 1 μM, GPR30 antagonist 100 nM
# Protocol: 661W photoreceptors cultured in 96-well plate (4×10^4 cells/well) were exposed to conditioned media from LPS-stimulated (50 ng/ml) BV2 microglia (cultured in 6-well plate with a cell density of 4×10^5 cells/well) for 48 h. […] Cell viability of 661W photoreceptors were assessed using a MTT assay.
# Murine microglial cell line (BV-2) cells and photoreceptor-like cell line (661W) were used in this study. BV-2 cells were plated in 6-well plates at the density of 4×10^5/well and cultured for 24 h in DMEM medium (Life Technologies Corporation, Grand Island, N.Y.) containing 5% heat inactivated FBS (Life Technologies Corporation, Grand Island, N.Y.) at 37° C. in a humidified atmosphere of 5% CO2. […] Cell viability of 661W photoreceptors were assessed using a MTT cell proliferation assay kits (ATCC, Manassas, Va.) following the manufacturer's specifications. […]
# 661W photoreceptors cultured in 96-well plate (4×10^4 cells/well) were exposed to conditioned media from LPS-stimulated (50 ng/ml) BV2 microglia (cultured in 6-well plate with a cell density of 4×10^5 cells/well) for 24 h. […] Cell viability of 661W photoreceptors were assessed using a MTT assay.
row,SMILES,"neurotoxicity of microglia-conditioned media to 661W photoreceptors (viability, MTT)"
1,CC(=O)c1ccc2c(c1)C1C=CCC1C(c1cc3c(cc1Br)OCO3)N2 (centres unmarked) [G-1],significantly reduced neurotoxicity
2,"O=C(c1ccc(OCCN2CCCCC2)cc1)c1c(-c2ccc(O)cc2)sc2cc(O)ccc12 [raloxifene, [6-hydroxy-2-(4-hydroxyphenyl)-benzothiophen-3-yl]-[4-[2-(1-piperidyl)ethoxy]phenyl]-methanone]",significantly reduced neurotoxicity

# From US11040019B2, “Selective estrogen-receptor modulators (SERMs) confer protection against photoreceptor degeneration” (THE UNITED STATES OF AMERICA, as represented by the …, priority 2016, dated 2021)
